The subject of series [1] is Escherichia coli ATCC 25922. As to the kind of experiment: Minimal Inhibitory Concentration (MIC) assay, Escherichia coli ATCC 25922. It is filed as cell-based. The following applies: ATCC25922, 20 h, read-out: MIC Escherichia coli ATCC25922. In short, it runs like this:
(§1)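 Broth microdilution in cation-adjusted Mueller Hinton broth with 2-fold serial compound dilutions, inoculum 5×10^5 CFU/mL. Plates incubated 20 h at 35 °C in ambient air. MIC (μg/mL) is the lowest concentration preventing visible growth; K. pneumoniae 43816 is a rifampin-resistant mutant.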

The subject of series [2] is Klebsiella pneumonia ATCC 43816. Kind of series: Minimal Inhibitory Concentration (MIC) assay, Klebsiella pneumonia ATCC 43816. It is filed as cell-based. The following applies: Klebsiella pneumoniae, ATCC43816, 20 h, read-out: MIC Klebsiella pneumoniae ATCC43816. An outline of the steps:
as §1

Series [3] in a line: Human Microsome Stability Assay. It is filed as in vitro ADME. The note with it: 1 μM compound, 0.5 mg/mL liver microsomal protein, 1 mM NADPH, pH 7.4, 37° C., 0-30 minutes; for CLint scaled at 1 µM: human, liver microsomes, read-out: Clearance of Human microsome. Here is the method:
The human microsomal stability assay is used for early assessment of metabolic stability of compounds of present invention in human liver microsomes. Human liver microsomes (Cat. NO.: 452117, Corning, USA) were pre-incubated with test compound for 10 minutes at 37° C. in 100 mM potassium phosphate buffer, pH 7.4. The reactions were initiated by adding NADPH regenerating system. The final incubation mixtures contained 1 μM compound, 0.5 mg/mL liver microsomal protein, 1 mM MgCl2 and 1 mM NADPH in 100 mM potassium phosphate buffer, pH 7.4. After incubation times of 0, 3, 6, 9, 15 and 30 minutes at 37° C., 300 μL of cold acetonitrile (including internal standard) was added to 100 μL incubation mixture to terminate the reaction. Following precipitation and centrifugation, the amount of compound remaining in the samples were determined by LC-MS/MS. Controls of no NADPH regenerating system at zero and 30 minutes were also prepared and analyzed.
(Microsomes from liver hold many membrane-bound enzymes, among them those of drug oxidation.)

The values below come from US20260308172A1, “TRICYCLIC COMPOUNDS FOR TREATMENT OF BACTERIAL INFECTIONS” (priority 2023, published 2026).

For orientation: MIC means the lowest concentration that inhibits growth of the organism.

In brackets after ≈: the same amount, converted by molar mass.

On to `O=C1O[C@H](CO)[C@H]2COc3cc(S(=O)(=O)N4CCN(c5cc(C(F)(F)C6CCNCC6)cc(Cl)n5)CC4)ccc3N12` [Example 037, (3S,3aR)-7-[4-[6-chloro-4-[difluoro(4-piperidyl)methyl]-2-pyridyl]piperazin-1-yl]sulfonyl-3-(hydroxymethyl)-3a,4-dihydro-3H-oxazolo[4,3-c][1,4]benzoxazin-1-one], for which the MIC in series [1] is 1.1 µg/mL (≈ 1.79 µM); in series [2], 1.14 µg/mL (≈ 1.86 µM). Also, the CLint scaled at 1 µM in series [3] was determined as 10.9 mL/min/kg.
For `O=C1O[C@@H](CO)[C@@H]2COc3cc(S(=O)(=O)N4CCN(c5cc(C(F)(F)C6CCNCC6)cc(Cl)n5)CC4)ccc3N12` [Example 038, (3R,3aS)-7-[4-[6-chloro-4-[difluoro(4-piperidyl)methyl]-2-pyridyl]piperazin-1-yl]sulfonyl-3-(hydroxymethyl)-3a,4-dihydro-3H-oxazolo[4,3-c][1,4]benzoxazin-1-one], the MIC in series [1] and in series [2] was 0.57 µg/mL (≈ 0.928 µM) each time. The CLint scaled at 1 µM in series [3] came to 11.1 mL/min/kg.
Consider `O=C1O[C@@H](CO)[C@H]2COc3cc(S(=O)(=O)N4CCN(c5cc(C(F)(F)C6CC7(CNC7)C6)cc(Cl)n5)CC4)ccc3N12` [Example 039, (3R,3aR)-7-[4-[4-[2-azaspiro[3.3]heptan-6-yl(difluoro)methyl]-6-chloro-2-pyridyl]piperazin-1-yl]sulfonyl-3-(hydroxymethyl)-3a,4-dihydro-3H-oxazolo[4,3-c][1,4]benzoxazin-1-one], for which the results for the MIC in series [1] and in series [2] were 0.87 µg/mL (≈ 1.39 µM) and 1.16 µg/mL (≈ 1.85 µM), respectively. The “Clearance of Human microsome” value in series [3] stood at 6.2 mL/min/kg.
Consider `NC1CCC(Oc2cc(Cl)nc(N3CCN(S(=O)(=O)c4ccc5c(c4)OC[C@@H]4[C@H](CO)OC(=O)N54)CC3)c2)CC1` (stereo partly drawn) [Example 042, (3R,3aR)-7-[4-[4-(4-aminocyclohexoxy)-6-chloro-2-pyridyl]piperazin-1-yl]sulfonyl-3-(hydroxymethyl)-3a,4-dihydro-3H-oxazolo[4,3-c][1,4]benzoxazin-1-one], for which the MIC worked out at 2.2 µg/mL (≈ 3.7 µM) in series [1] and 2.21 µg/mL (≈ 3.72 µM) in series [2]. Moreover, the CLint scaled at 1 µM in series [3] was determined as 6.7 mL/min/kg.
On to `NC1CCC(Oc2cc(Cl)nc(N3CCN(S(=O)(=O)c4ccc5c(c4)OCC4C(N)CC(=O)N54)CC3)c2)CC1` (stereo not drawn) [Example 043, 3-Amino-7-[4-[4-(4-aminocyclohexoxy)-6-chloro-2-pyridyl]piperazin-1-yl]sulfonyl-2,3,3a,4-tetrahydropyrrolo[2,1-c][1,4]benzoxazin-1-one], for which the MIC came to 4.3 µg/mL (≈ 7.45 µM) in series [1] and 8.64 µg/mL (≈ 15 µM) in series [2]. Moreover, the “Clearance of Human microsome” value in series [3] was 6.2 mL/min/kg.
Regarding `NCCCNC(=O)/C=C/C(F)(F)c1cc(Cl)nc(N2CCN(S(=O)(=O)c3ccc4c(c3)OC[C@@H]3[C@H](CO)OC(=O)N43)CC2)c1` [Example 044, (E)-4-[2-[4-[[(3R,3aR)-3-(hydroxymethyl)-1-oxo-3a,4-dihydro-3H-oxazolo[4,3-c][1,4]benzoxazin-7-yl]sulfonyl]piperazin-1-yl]-6-chloro-4-pyridyl]-N-(3-aminopropyl)-4,4-difluoro-but-2-enamide], the figures for the MIC in series [1] and in series [2] were 2.4 µg/mL (≈ 3.65 µM) and 2.41 µg/mL (≈ 3.67 µM), respectively. Further, in series [3], the CLint scaled at 1 µM came out at 7 mL/min/kg.
In the case of `NCCCNC(=O)[C@H]1CC[C@H](C(F)(F)c2cc(Cl)nc(N3CCN(S(=O)(=O)c4ccc5c(c4)OCC4C(N)CC(=O)N54)CC3)c2)CC1` (stereo partly drawn) [Example 045, 4-[[2-[4-[(3-Amino-1-oxo-2,3,3a,4-tetrahydropyrrolo[2,1-c][1,4]benzoxazin-7-yl)sulfonyl]piperazin-1-yl]-6-chloro-4-pyridyl]-difluoro-methyl]-N-(3-aminopropyl)cyclohexanecarboxamide], the MIC in series [1] and in series [2] was 0.63 µg/mL (≈ 0.905 µM) each time. In addition, in series [3], the CLint scaled at 1 µM was 8.9 mL/min/kg.
On to `NCCCNC(=O)[C@H]1CC[C@H](C(F)(F)c2cc(Cl)nc(N3CCN(S(=O)(=O)c4ccc5c(c4)OC[C@@H]4[C@H](CO)OC(=O)N54)CC3)c2)CC1` [Example 046, 4-[[2-[4-[[(3R,3aR)-3-(hydroxymethyl)-1-oxo-3a,4-dihydro-3H-oxazolo[4,3-c][1,4]benzoxazin-7-yl]sulfonyl]piperazin-1-yl]-6-chloro-4-pyridyl]-difluoro-methyl]-N-(3-aminopropyl)cyclohexanecarboxamide], for which the MIC in series [1] and in series [2] was 0.32 µg/mL (≈ 0.449 µM) throughout. Also, the “Clearance of Human microsome” value in series [3] was found to be 6.2 mL/min/kg.
For `NCCCN(CCCN)C(=O)[C@H]1CC[C@H](C(F)(F)c2cc(Cl)nc(N3CCN(S(=O)(=O)c4ccc5c(c4)OC[C@H]4[C@H](CO)OC(=O)N54)CC3)c2)CC1` [Example 048, 4-[[2-[4-[[(3R,3aS)-3-(hydroxymethyl)-1-oxo-3a,4-dihydro-3H-oxazolo[4,3-c][1,4]benzoxazin-7-yl]sulfonyl]piperazin-1-yl]-6-chloro-4-pyridyl]-difluoro-methyl]-N,N-bis(3-aminopropyl)cyclohexanecarboxamide], the MIC in series [1] and in series [2] was 0.64 µg/mL (≈ 0.831 µM) in each case. Also, the CLint scaled at 1 µM in series [3] was 12.9 mL/min/kg.
As to `NCCCNC(=O)[C@H]1CC[C@H](C(F)(F)c2cc(Cl)nc(N3CCN(S(=O)(=O)c4ccc5c(c4)OC[C@H]4[C@H](CO)OC(=O)N54)CC3)c2)CC1` [Example 049, 4-[[2-[4-[[(3R,3aS)-3-(hydroxymethyl)-1-oxo-3a,4-dihydro-3H-oxazolo[4,3-c][1,4]benzoxazin-7-yl]sulfonyl]piperazin-1-yl]-6-chloro-4-pyridyl]-difluoro-methyl]-N-(3-aminopropyl)cyclohexanecarboxamide], the MIC is 0.3 µg/mL (≈ 0.421 µM) in series [1] and 0.29 µg/mL (≈ 0.407 µM) in series [2]. The “Clearance of Human microsome” value in series [3] is 6.2 mL/min/kg.
Turning to `NCCC(=O)NC1CCC(Oc2cc(Cl)nc(N3CCN(S(=O)(=O)c4ccc5c(c4)OC[C@H]4[C@H](CO)OC(=O)N54)CC3)c2)CC1` (stereo partly drawn) [Example 051, N-[4-[[2-[4-[[(3R,3aS)-3-(hydroxymethyl)-1-oxo-3a,4-dihydro-3H-oxazolo[4,3-c][1,4]benzoxazin-7-yl]sulfonyl]piperazin-1-yl]-6-chloro-4-pyridyl]oxy]cyclohexyl]-3-amino-propanamide], the MIC is 3.7 µg/mL (≈ 5.56 µM) in series [1] and 3.65 µg/mL (≈ 5.49 µM) in series [2]. For the same compound, in series [3], the CLint scaled at 1 µM came out at 13.1 mL/min/kg.
For `NCCN(CCN)CC(=O)N1CCC(C(F)(F)c2cc(Cl)nc(N3CCN(S(=O)(=O)c4ccc5c(c4)OC[C@@H]4[C@H](CO)OC(=O)N54)CC3)c2)CC1` [Example 052, (3R,3aR)-7-[4-[4-[[1-[2-[bis(2-aminoethyl)amino]acetyl]-4-piperidyl]-difluoro-methyl]-6-chloro-2-pyridyl]piperazin-1-yl]sulfonyl-3-(hydroxymethyl)-3a,4-dihydro-3H-oxazolo[4,3-c][1,4]benzoxazin-1-one] the same measures were 0.68 µg/mL (≈ 0.898 µM), 1.36 µg/mL (≈ 1.8 µM) and 6.4 mL/min/kg.
The like results for `NCC(=O)N1CCC(C(F)(F)c2cc(Cl)nc(N3CCN(S(=O)(=O)c4ccc5c(c4)OC[C@@H]4[C@H](CO)OC(=O)N54)CC3)c2)CC1` [Example 053, (3R,3aR)-7-[4-[4-[[1-(2-aminoacetyl)-4-piperidyl]-difluoro-methyl]-6-chloro-2-pyridyl]piperazin-1-yl]sulfonyl-3-(hydroxymethyl)-3a,4-dihydro-3H-oxazolo[4,3-c][1,4]benzoxazin-1-one] were, in that order, 0.61 µg/mL (≈ 0.909 µM), 0.61 µg/mL (≈ 0.909 µM) and 12.2 mL/min/kg.
For `NCCC(=O)N1CCC(C(F)(F)c2cc(Cl)nc(N3CCN(S(=O)(=O)c4ccc5c(c4)OC[C@@H]4[C@H](CO)OC(=O)N54)CC3)c2)CC1` [Example 054, (3R,3aR)-7-[4-[4-[[1-(3-aminopropanoyl)-4-piperidyl]-difluoro-methyl]-6-chloro-2-pyridyl]piperazin-1-yl]sulfonyl-3-(hydroxymethyl)-3a,4-dihydro-3H-oxazolo[4,3-c][1,4]benzoxazin-1-one] the same measures were 0.62 µg/mL (≈ 0.905 µM), 0.62 µg/mL (≈ 0.905 µM) and 6.4 mL/min/kg.
`NCCN1CCC(C(F)(F)c2cc(Cl)nc(N3CCN(S(=O)(=O)c4ccc5c(c4)OC[C@@H]4[C@H](CO)OC(=O)N54)CC3)c2)CC1` [Example 055, (3R,3aR)-7-[4-[4-[[1-(2-aminoethyl)-4-piperidyl]-difluoro-methyl]-6-chloro-2-pyridyl]piperazin-1-yl]sulfonyl-3-(hydroxymethyl)-3a,4-dihydro-3H-oxazolo[4,3-c][1,4]benzoxazin-1-one]: the MIC in series [1] and in series [2] was 0.3 µg/mL (≈ 0.457 µM) throughout. The CLint scaled at 1 µM in series [3] stood at 7.8 mL/min/kg.
In the case of `NCC(=O)NCC(=O)N1CCC(C(F)(F)c2cc(Cl)nc(N3CCN(S(=O)(=O)c4ccc5c(c4)OC[C@@H]4[C@H](CO)OC(=O)N54)CC3)c2)CC1` [Example 057, N-[2-[4-[[2-[4-[[(3R,3aR)-3-(hydroxymethyl)-1-oxo-3a,4-dihydro-3H-oxazolo[4,3-c][1,4]benzoxazin-7-yl]sulfonyl]piperazin-1-yl]-6-chloro-4-pyridyl]-difluoro-methyl]-1-piperidyl]-2-oxo-ethyl]-2-amino-acetamide], the MIC in series [1] and in series [2] was 0.66 µg/mL (≈ 0.906 µM) in each case. In addition, the CLint scaled at 1 µM in series [3] came out at 11.3 mL/min/kg.
